Measured values published in ChEMBL document CHEMBL5154802, “Leveraging Structure-Based Drug Design to Identify Next-Generation MAT2A Inhibitors, Including Brain-Penetrant and Peripherally Efficacious Leads” (J Med Chem, 2022).
Activity calls are given as the source filed them. The rule behind the calls is not given here.

What was measured:
[1] = molecular target: T1, S-adenosylmethionine synthase isoform type-2 (Homo sapiens, UniProt P31153); test: Inhibition of recombinant human MAT2A expressed in baculovirus infected Sf9 cells assessed as S-adenosyl methionine production using L-methionine as substrate preincubated for 60 mins followed by substrate addition and measured after 60 mins in presence of ATP
Target sequence in this assay (P31153 whole entry, canonical isoform): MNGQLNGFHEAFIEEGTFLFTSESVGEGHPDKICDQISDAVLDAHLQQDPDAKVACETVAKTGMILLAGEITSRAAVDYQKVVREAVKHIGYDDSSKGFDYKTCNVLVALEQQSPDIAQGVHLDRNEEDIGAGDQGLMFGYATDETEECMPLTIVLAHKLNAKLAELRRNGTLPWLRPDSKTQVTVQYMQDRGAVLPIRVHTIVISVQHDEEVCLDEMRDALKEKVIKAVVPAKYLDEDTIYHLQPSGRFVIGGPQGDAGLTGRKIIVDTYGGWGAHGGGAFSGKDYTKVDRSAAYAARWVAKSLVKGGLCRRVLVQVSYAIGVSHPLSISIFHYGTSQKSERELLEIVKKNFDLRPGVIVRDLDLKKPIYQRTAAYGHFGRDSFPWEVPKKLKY

[2] = molecular target: T1, S-adenosylmethionine synthase isoform type-2; test: Inhibition of recombinant human MAT2A expressed in baculovirus infected Sf9 cells assessed as S-adenosyl methionine production using L-methionine as substrate preincubated for 60 mins followed by substrate addition and measured after 60 mins in presence of ATP relative to control
Target sequence in this assay (P31153 whole entry, looked up, canonical isoform): as the sequence (P31153 whole entry, canonical isoform) above

[3] = molecular target: T1, S-adenosylmethionine synthase isoform type-2; test: Inhibition of […] in MTAP-null human HCT-116 cells after 72 hrs by LC-MS/MS analysis; format: cell-based, HCT116-MTAP null
Target sequence in this assay (P31153 whole entry, canonical isoform): as above

PXR (NR1I2) = molecular target: T2, PXR (NR1I2) (Homo sapiens, UniProt O75469); test: Transactivation of human PXR transfected in HepG2 cells assessed as CYP450 induction by measuring fold activation at 10 uM by luciferase reporter gene assay; format: ADME, cell-based; settings: HepG2 cells transfected with human PXR, read-out: FC
T2 sequence (O75469 whole entry): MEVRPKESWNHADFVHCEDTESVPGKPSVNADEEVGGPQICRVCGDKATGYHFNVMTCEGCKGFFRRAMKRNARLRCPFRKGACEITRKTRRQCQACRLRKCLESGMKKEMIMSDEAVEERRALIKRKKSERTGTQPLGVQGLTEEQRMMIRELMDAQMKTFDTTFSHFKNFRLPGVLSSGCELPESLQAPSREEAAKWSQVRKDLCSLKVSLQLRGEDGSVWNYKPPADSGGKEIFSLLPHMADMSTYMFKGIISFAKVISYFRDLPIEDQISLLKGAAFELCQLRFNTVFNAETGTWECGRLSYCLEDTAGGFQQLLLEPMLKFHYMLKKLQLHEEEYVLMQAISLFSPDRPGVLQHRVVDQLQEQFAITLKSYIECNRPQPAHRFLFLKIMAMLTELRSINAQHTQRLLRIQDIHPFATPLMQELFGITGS

[4] = molecular target: T1, S-adenosylmethionine synthase isoform type-2; test: Inhibition of […] in MTAP-null human HCT-116 cells after 72 hrs by LC-MS/MS analysis relative to control; format: cell-based; settings: HCT116-MTAP null
Target sequence in this assay (P31153 whole entry, looked up, canonical isoform): as the sequence (P31153 whole entry, canonical isoform) above

[5] = In vivo inhibition of MAT2A in human HCT116-MTAP null cells xenografted po dosed nu/nu mouse model assessed as plasma exposure required for reduction in tumor SAM level; format: functional
KP-4 = test: Antitumor activity against human KP-4 cells xenografted in CB17-SCID mouse assessed as tumor growth inhibition […] at 30 to 60 mg/kg, po QD for 13 days; format: functional, organism-based; settings: dose 30-60 mg/kg, time 13.0 day
[6] = Ratio of drug concentration in brain to plasma of mouse at 10 mg/kg, po measured at 1 to 4 hrs post dose; format: ADME, organism-based; settings: brain and plasma, time 1-4 hrs
HCT116-MTAP null = test: Antitumor activity against human HCT116-MTAP null cells xenografted in nu/nu mouse assessed as inhibition of tumor […] at 10 to 30 mg/kg, po QD for 21 days; format: functional, organism-based; settings: dose 10-30 mg/kg, time 21.0 day
[7] = Inhibition of MAT2A in human HCT116-MTAP null cells xenografted po dosed nu/nu mouse model assessed as plasma exposure required for reduction in periphery SAM level; format: functional

SMILES | IC50 [1] | Imax [2] | IC50 [3] | Imax [4] | other results
COc1ccc(N2Cc3cnc(NCC4CC4)nc3C3(CCN(Cc4ccccc4F)C3)C2=O)cc1 (configuration not stated) | 320 nM | 38% |  |  | 
CCNc1ncc2cn(-c3ccc(OC)cc3)c(=O)c(-c3ccc(Br)cc3)c2n1 | 34 nM | 91% |  |  | 
CCCNc1ncc2cn(-c3ccc(OC)cc3)c(=O)c(-c3ccc(Br)cc3)c2n1 | 48 nM | 73% |  |  | 
COc1ccc(-n2cc3cnc(NCC4CC4)nc3c(-c3ccc(Br)cc3)c2=O)cc1 | 54 nM | 88% |  |  | 
COc1ccc(N2Cc3cnc(NCC4CC4)nc3C3(CCN(Cc4ccsc4)C3)C2=O)cc1 (configuration not stated) | 510 nM | 38% |  |  | 
COc1ccc(-n2cc3cnc(N(C)CC(F)(F)F)nc3c(-c3ccc(Br)cc3)c2=O)cc1 | 3310 nM | 71% |  |  | 
COc1ccc(N2Cc3cnc(NCC4CC4)nc3C3(CCN(Cc4cn[nH]c4)C3)C2=O)cc1 (configuration not stated) | 7830 nM | 60% |  |  | 
COc1ccc(N2Cc3cnc(NCC4CC4)nc3C3(CCN(Cc4cnc(N)s4)C3)C2=O)cc1 (configuration not stated) | 410 nM | 38% |  |  | 
Cn1cc2cc(-n3cc4ccc(OCC(F)F)nc4c(-c4ccc(Cl)cc4)c3=O)ccc2n1 |  |  | 13 nM | 88% | fold induction at 10 µM (PXR (NR1I2)): 3.8
COc1ccc(-n2cc3cnc(NCC(F)(F)F)nc3c(-c3ccc(Br)cc3)c2=O)cc1 | 22 nM | 94% | 34 nM | 84% | fIC50 [5]: 10.2 nM; Activity (KP-4): Active
O=c1c(-c2ccc(Br)cc2)c2nc(NCC(F)(F)F)ncc2cn1-c1ccc2ncccc2c1 |  |  | 46 nM | 84% | Kp [6]: 0.1; fold induction at 10 µM (PXR (NR1I2)): 5.3
COc1ccc(N2Cc3c(C)nc(NCC4CC4)nc3C3(CCN(Cc4ccccc4F)C3)C2=O)cc1 (configuration not stated) | 250 nM | 50% |  |  | 
O=c1c(-c2ccc(Cl)cc2)c2nc(NCC(F)(F)F)ncc2cn1-c1ccc2ncccc2c1 |  |  | 79 nM | 83% | 
Cn1cc2cc(-n3cc4cnc(NCC(F)(F)F)nc4c(-c4ccc(Cl)cc4)c3=O)ccc2n1 |  |  | 14 nM | 80% | fIC50 [5]: 1.8 nM; Activity (HCT116-MTAP null): Active; fIC50 [7]: 2 nM
Cn1cc2cc(-n3cc4ccc(NCC(F)(F)F)nc4c(-c4ccc(Cl)cc4)c3=O)ccc2n1 |  |  | 11 nM | 82% | 
Cn1cc2cc(-n3cc4ccc(CCC(F)(F)F)nc4c(-c4ccc(Cl)cc4)c3=O)ccc2n1 |  |  | 101 nM | 76% | 
COc1ccc(-n2cc3cnc(NCCC(F)(F)F)nc3c(-c3ccc(Br)cc3)c2=O)cc1 | 325 nM | 69% |  |  | 
CCOc1ccc2cn(-c3ccc4nn(C)cc4c3)c(=O)c(-c3ccc(Cl)cc3)c2n1 |  |  | 23 nM | 89% | fIC50 [5]: 9.8 nM
COc1ccc(N2Cc3cnc(NCC4CC4)nc3C3(CCN(Cc4cc[nH]c4)C3)C2=O)cc1 (configuration not stated) | 2010 nM | 34% |  |  | 
Cn1cc2cc(-n3cc4ccc(OCC(F)(F)F)nc4c(-c4ccc(Cl)cc4)c3=O)ccc2n1 |  |  | 32 nM | 82% | 
COc1ccc(N2Cc3cnc(NCC4CC4)nc3C3(CCN(Cc4cc[nH]n4)C3)C2=O)cc1 (configuration not stated) | 690 nM | 88% |  |  | 
Cc1nc2ccc(-n3cc4cnc(NCC(F)(F)F)nc4c(-c4ccc(Cl)cc4)c3=O)cc2n1C |  |  | 21 nM | 80% | 
Cn1cnc2ccc(-n3cc4cnc(NCC(F)(F)F)nc4c(-c4ccc(Cl)cc4)c3=O)cc21 |  |  | 31 nM | 80% | 
Cc1nc(NCC2CC2)nc2c1COCC21CCN(Cc2ccccc2F)C1 (configuration not stated) | 7200 nM | 46% |  |  | 
COc1ccc(N2Cc3cnc(NCC4CC4)nc3C3(CCN(Cc4ccon4)C3)C2=O)cc1 (configuration not stated) | 530 nM | 50% |  |  | 
COc1ccc(N2Cc3cnc(NCC4CC4)nc3C3(CCN(Cc4cscn4)C3)C2=O)cc1 (configuration not stated) | 610 nM | 62% |  |  | 
CCNc1ccc2cn(-c3ccc4nn(C)cc4c3)c(=O)c(-c3ccc(Cl)cc3)c2n1 |  |  | 10 nM | 81% | 
COc1ccc(-n2cc3cnc(NCC(F)(F)F)nc3c(-c3ccc(Cl)cc3)c2=O)cc1 |  |  | 113 nM | 83% | 
